# Source: patent EP4613859A1, “TLR SIGNALING INHIBITORY PEPTIDE AND COMPOSITION INCLUDING SAME FOR PREVENTION OR TREATMENT OF INFLAMMATORY DISEASES” (Korea Institute of Science and Technology, priority 2022, dated 2025)
# Columns and labels:
# human MYD88 = assay: Phage display screening of TIR domain-derived peptide library against immobilized MyD88, NGS analysis after four rounds; type: binding; conditions: for NGS count: phages remaining after fourth round
# Procedure: (§1) First, vector cloning was performed by synthesizing a DNA sequence for expressing each peptide belonging to the library constructed in Example 1. Vector cloning was performed using p3/p8 phagemids.
# (§2) After the fourth round, the remaining phages were obtained by binding to the finally immobilized target proteins, and peptide sequences binding to the target and the relative distribution of each sequence were confirmed by performing NGS analysis on phagemids in the phages.
# human MAL = assay: Phage display screening of TIR domain-derived peptide library against immobilized MAL, NGS analysis after four rounds; type: binding; conditions: for NGS count: phages remaining after fourth round
# Procedure: as §1, §2
# [1] = P3_MyD88: library displayed on P3 coat protein
# [2] = P3_MyD88: relative distribution of the sequence in NGS
# [3] = P8_MyD88: library displayed on P8 coat protein
# [4] = P8_MyD88: relative distribution of the sequence in NGS
# [5] = P3_MAL: library displayed on P3 coat protein
# [6] = P3_MAL: relative distribution of the sequence in NGS
# [7] = P8_MAL: library displayed on P8 coat protein
# [8] = P8_MAL: relative distribution of the sequence in NGS
sequence,measurement,setting,value
HLLKEFDKKLITAFKD,NGS count,human MYD88; [1],2399
same,Population,human MYD88; [2],0.70%
YLLLSVFQTIFARRTE,NGS count,human MYD88; [3],7165
same,Population,human MYD88; [4],2.76%
DYASSTWWLRELLQIA,NGS count,human MYD88; [3],4111
same,Population,human MYD88; [4],1.58%
VEPTQVRKQSGAVENA,NGS count,human MAL; [5],2283
same,Population,human MAL; [6],0.86%
DWFLSKLSQHILKREK,NGS count,human MAL; [5],4580
same,Population,human MAL; [6],1.72%
KLFWEKFKEFFLPSLSR,NGS count,human MAL; [7],4888
same,Population,human MAL; [8],1.51%
AFFWAQLKSVLGNPTM,NGS count,human MAL; [7],28801
same,Population,human MAL; [8],8.90%
YNFISHLYDALHRNRI,NGS count,human MAL; [5],2678
same,Population,human MAL; [6],1.01%
same,NGS count,human MYD88; [1],2891
same,Population,human MYD88; [2],0.84%
RLLKWKEALHQFHSWV,NGS count,human MAL; [5],14924
same,Population,human MAL; [6],5.61%
HWIDWEYFVGIEDHIK,NGS count,human MYD88; [3],3422
same,Population,human MYD88; [4],1.32%
TSHLHHALRLNKIETF,NGS count,human MYD88; [1],2076
same,Population,human MYD88; [2],0.60%
AVDKETDKIQTPLKNA,NGS count,human MYD88; [1],4790
same,Population,human MYD88; [2],1.39%
PEKDNGGENAFINNIV,NGS count,human MYD88; [1],2498
same,Population,human MYD88; [2],0.73%
AFFWEQLRTVLGKPTM,NGS count,human MAL; [7],11826
same,Population,human MAL; [8],3.65%
DWVWDYLLPNLEGPAG,NGS count,human MYD88; [3],19394
same,Population,human MYD88; [4],7.47%
DPQDLQWFYERLVSLI,NGS count,human MYD88; [3],5730
same,Population,human MYD88; [4],2.21%
WALDELLQILHARELF,NGS count,human MYD88; [3],14404
same,Population,human MYD88; [4],5.55%
GLSWGPYEWWMGLYDA,NGS count,human MYD88; [3],1965
same,Population,human MYD88; [4],0.76%
YYLDPSHLRKQSGEFG,NGS count,human MYD88; [1],2538
same,Population,human MYD88; [2],0.74%
KLIQGWFLYRLLKIEQ,NGS count,human MAL; [7],2068
KMQKWKDALYEAANLS,NGS count,human MAL; [5],4427
same,Population,human MAL; [6],1.66%
WFLFTVRSAIYAMSPA,NGS count,human MAL; [7],3156
same,Population,human MAL; [8],0.97%
MFGGDTFHDFLDLISM,NGS count,human MYD88; [3],1489
same,Population,human MYD88; [4],0.57%
YAFTGHLHRYLVQRGV,NGS count,human MAL; [5],43764
same,Population,human MAL; [6],16.44%
same,NGS count,human MYD88; [1],13420
same,Population,human MYD88; [2],3.91%
DWVWEHFFPMEEKDQT,NGS count,human MYD88; [3],1538
same,Population,human MYD88; [4],0.59%
AYANFRQGLLRLLELA,NGS count,human MAL; [7],466
SFFWNKLRYHLPAPQH,NGS count,human MAL; [5],2297
same,Population,human MAL; [6],0.86%
DPQDLDWFYERLVSLL,NGS count,human MYD88; [3],13137
same,Population,human MYD88; [4],5.06%
LKWGDPYFWSKLRYAM,NGS count,human MAL; [5],5128
same,Population,human MAL; [6],1.93%
same,NGS count,human MYD88; [1],8310
same,Population,human MYD88; [2],2.42%
VQWDDPWFWDKLAYAM,NGS count,human MYD88; [3],4902
same,Population,human MYD88; [4],1.89%
TFLGHLYNALVQAGIH,NGS count,human MAL; [7],24732
same,Population,human MAL; [8],7.64%
IDDDHLTYLVRLLLSR,NGS count,human MYD88; [3],3059
same,Population,human MYD88; [4],1.18%
FLSYRALEKRFGPIGQ,NGS count,human MYD88; [1],3289
same,Population,human MYD88; [2],0.96%
YASYDDNDYYWVTHVLLRHL,NGS count,human MYD88; [3],5893
same,Population,human MYD88; [4],2.66%
DSLFWDRLLYSLHVTE,NGS count,human MYD88; [3],7586
same,Population,human MYD88; [4],2.92%
DFLNWFIALKSTVIEN,NGS count,human MAL; [7],867
YFLHFLLFSRPETEYI,NGS count,human MAL; [7],17198
same,Population,human MAL; [8],5.31%
DPQDLDWFYERLVSLF,NGS count,human MYD88; [3],54757
same,Population,human MYD88; [4],21.10%
FLNFRGLDVRNYFLGH,NGS count,human MAL; [5],2855
same,Population,human MAL; [6],1.07%
QLIQQWIELHLHQLHL,NGS count,human MAL; [7],9394
same,Population,human MAL; [8],2.90%
same,NGS count,human MYD88; [3],1605
same,Population,human MYD88; [4],0.62%
SSFREGLWRLLELSKK,NGS count,human MAL; [5],29955
same,Population,human MAL; [6],11.26%
same,NGS count,human MYD88; [1],79510
same,Population,human MYD88; [2],23.15%
LGYHWIDWEYFVGIED,NGS count,human MYD88; [3],25216
same,Population,human MYD88; [4],9.72%
HFFWIQLKSILGETSF,NGS count,human MAL; [7],3624
same,Population,human MAL; [8],1.12%
SAAYDDFWDRLIRMIE,NGS count,human MYD88; [3],5335
same,Population,human MYD88; [4],2.06%
PNLRTKVLNYLMRTKT,NGS count,human MAL; [5],26931
same,Population,human MAL; [6],10.12%
LFFWESLKQLLRSDGR,NGS count,human MAL; [7],22560
same,Population,human MAL; [8],5.97%
HQAFWNRLWAKLKPPT,NGS count,human MAL; [5],1932
same,Population,human MAL; [6],0.73%
KFIWDIINAISSQIRV,NGS count,human MAL; [7],146
EWIREQLRPALKERLP,NGS count,human MAL; [5],2354
same,Population,human MAL; [6],0.88%
same,NGS count,human MYD88; [1],16821
same,Population,human MYD88; [2],4.90%
LQNQWKLALTKVANLV,NGS count,human MAL; [5],2285
same,Population,human MAL; [6],0.86%
YLKWGYPWFWDRLRFA,NGS count,human MAL; [5],1680
same,Population,human MAL; [6],0.63%
same,NGS count,human MAL; [7],517
same,NGS count,human MYD88; [1],7321
same,Population,human MYD88; [2],2.13%
RKGDLISDELLIAIEE,NGS count,human MYD88; [1],2452
same,Population,human MYD88; [2],0.71%
YTALTNSGFHTFRDND,NGS count,human MYD88; [1],17600
same,Population,human MYD88; [2],5.12%
NGHESEIIKEIVDTIV,NGS count,human MYD88; [1],4233
same,Population,human MYD88; [2],1.23%
WFMMKFRTVLDHVNDV,NGS count,human MAL; [7],2269
WFYERLVSLILRDTKV,NGS count,human MAL; [7],79000
same,Population,human MAL; [8],24.40%
RNFVAYLFQALANKGI,NGS count,human MAL; [7],27950
same,Population,human MAL; [8],8.63%
LEANDSLFWDRLLYSL,NGS count,human MYD88; [3],1465
same,Population,human MYD88; [4],0.56%
VANILGYHWIDWEYFV,NGS count,human MYD88; [3],2029
same,Population,human MYD88; [4],0.78%
HHKGSYGEALAEHEKR,NGS count,human MAL; [5],3056
same,Population,human MAL; [6],1.15%
SLLYDHLRWLGIRAFL,NGS count,human MAL; [7],2576
same,Population,human MAL; [8],0.80%
YLRADDSWFWEKLLYA,NGS count,human MYD88; [3],4067
same,Population,human MYD88; [4],1.57%
FTLAVHVRNWLVGGFI,NGS count,human MAL; [7],520
KWFWDKLIYALSRNPH,NGS count,human MAL; [5],2796
same,Population,human MAL; [6],1.05%
WDFASNMEQFWDRLYY,NGS count,human MYD88; [3],7352
same,Population,human MYD88; [4],2.83%
WALQELVKILQAKIFL,NGS count,human MAL; [7],227
same,Population,human MAL; [8],0.07%
SPQEQDGFWVRLIEAL,NGS count,human MYD88; [3],1842
same,Population,human MYD88; [4],0.71%
SEFIQKIILWMNPKIV,NGS count,human MAL; [7],4458
same,Population,human MAL; [8],1.38%
AFLYTFLINLTHPTNF,NGS count,human MAL; [7],51063
same,Population,human MAL; [8],18.86%
RGFLSHLRHHLQAKDH,NGS count,human MAL; [5],15065
same,Population,human MAL; [6],5.66%
YASSSWALDELLRILY,NGS count,human MYD88; [3],2327
same,Population,human MYD88; [4],0.90%
WFLTAFRMAMDQVADT,NGS count,human MAL; [7],353
SENYATSPWALDELVL,NGS count,human MYD88; [1],5494
same,Population,human MYD88; [2],1.89%
YAASPWWFDELVKIVG,NGS count,human MYD88; [3],3433
same,Population,human MYD88; [4],1.32%
RNNFIGHLYQALYRIG,NGS count,human MAL; [7],3120
same,Population,human MAL; [8],0.96%
YLISYIFNELARAGFS,NGS count,human MAL; [7],295
same,Population,human MAL; [8],0.09%
SELRVVDDGSVSPLEM,NGS count,human MYD88; [1],4872
same,Population,human MYD88; [2],1.42%
SLRKNLVSNLIEEFKR,NGS count,human MAL; [5],3569
same,Population,human MAL; [6],1.34%
WALDELLKILYANETM,NGS count,human MYD88; [3],10515
same,Population,human MYD88; [4],4.05%
PQDLEWFYERLVSLIL,NGS count,human MYD88; [3],10568
same,Population,human MYD88; [4],4.07%
PSEVRKQTGSLAKAFA,NGS count,human MYD88; [1],2253
same,Population,human MYD88; [2],0.66%
DPQDLEWFYERLFSQM,NGS count,human MYD88; [3],4488
same,Population,human MYD88; [4],1.73%
AWALHQLQQIINWHET,NGS count,human MAL; [7],232
same,Population,human MAL; [8],0.07%
